# System: NaIO3-treated ARPE-19 cells
# Experiment: NaIO3-induced degradation of ARPE-19 cells, MTT cell viability assay
# Type: cell-based, human
# Conditions: 16 hours
# Experimental: Cell Culture: ARPE-19 passages 3-7 were used for all experiments. Cells were cultured in %-well plates in DMEM:F12 with 10% of FBS, and incubated at 37° C. with 5% CO2 humidified atmosphere. […] Cell Viability Assay: The colorimetric MTT assay was used to check cell viability. […] At the same time different MBTs, labeled 1 through 10 and summarized in FIG. 2 and Table 2 below, were given to the treatment group at a concentration of 10^6 CFU. After 16 hours of incubation, the absorbance cell viability was evaluated by spectrophotometrically using a microplate reader at 600 nm. Cell Culture: ARPE-19 passages 3-7 were used for all experiments. Cells were cultured in 96-well plates in DMEM:F12 with 10% of FBS, and incubated at 37° C. with 5% CO2 humidified atmosphere. […] Cell Viability Assay: The colorimetric MTT assay was used to check cell viability. […] In the control group, cells were treated only with DMEM:F12 (control media; labeled 'mock-treated' in FIG. 3). […] After 16 hours of incubation, the absorbance cell viability was evaluated by spectrophotometrically using a microplate reader at 600 nm. […] After 16 hours of incubation, the absorbance cell viability was evaluated by spectrophotometrically using a microplate reader at 600 nm. […] After 16 hours of incubation, the absorbance cell viability was evaluated by spectrophotometrically using a microplate reader at 600 nm.
compound,measurement,setting,value
O=C(CO)[C@@H](O)[C@H](O)[C@@H](O)C(=O)O [5-keto-gluconate],cell viability of NaIO3-treated ARPE-19 cells compared to controls (MTT),"1200 μg/ml NaIO3, all tested concentrations of 5-keto-gluconate (0.1%, 0.2%, 0.4%, 0.5% w/v)",improved cell viability
O=C(O)C(=O)[C@@H](O)[C@H](O)[C@H](O)CO [2-keto-gluconate],cell viability of NaIO3-treated ARPE-19 cells compared to controls (MTT),"1200 μg/ml NaIO3, 0.1% (w/v) of 2-keto-gluconate",improved cell viability
